Source: ChEMBL document CHEMBL3352595, “Anti-inflammatory secoiridoid glycosides from Gentianella azurea” (Bioorg Med Chem Lett, 2014)

What follows are molecules tested on RAW264.7 (assay: Anti-inflammatory activity in mouse RAW264.7 cells assessed as inhibition of LPS-induced nitric oxide production).
Type: functional, cell-based
Work on `C=C[C@H]1[C@H](O[C@@H]2O[C@H](COC(C)=O)[C@@H](O)[C@H](OC(C)=O)[C@H]2OC(=O)c2cccc(O)c2O)OC=C2C(=O)OCC[C@H]21` yielded an IC50 of over 200 µM.
Molecule `C=C[C@H]1[C@H](O[C@@H]2O[C@H](COC(C)=O)[C@@H](OC(=O)c3cccc(O)c3O[C@@H]3O[C@H](CO)[C@@H](O)[C@H](O)[C@H]3O)[C@H](OC(C)=O)[C@H]2OC(=O)c2cccc(O)c2O)OC=C2C(=O)OCC[C@H]21` has an IC50 of 5.18 µM.
Work on `C=C[C@H]1[C@H](O[C@@H]2O[C@H](COC(=O)c3cccc(O)c3O[C@@H]3O[C@H](CO)[C@@H](O)[C@H](O)[C@H]3O)[C@@H](O)[C@H](O)[C@H]2O)OC=C2C(=O)OCC[C@H]21` yielded an IC50 of over 200 µM.
Work on `C=C[C@H]1[C@H](O[C@@H]2O[C@H](CO)[C@@H](O)[C@H](O)[C@H]2OC(=O)/C=C/c2ccc(O)cc2)OC=C2C(=O)OCC[C@]21O` yielded an IC50 of over 200 µM.
Molecule `C=C[C@H]1[C@H](O[C@@H]2O[C@H](COC(C)=O)[C@@H](OC(C)=O)[C@H](O)[C@H]2OC(C)=O)OC=C2C(=O)OCC[C@H]21` has an IC50 of 52.8 µM.
Work on `C=C[C@H]1[C@H](O[C@@H]2O[C@H](COC(=O)c3cccc(O)c3O[C@@H]3O[C@H](CO)[C@@H](O)[C@H](O)[C@H]3O)[C@@H](O)[C@H](OC(C)=O)[C@H]2OC(=O)c2cccc(O)c2O)OC=C2C(=O)OCC[C@H]21` yielded an IC50 of over 200 µM.
Molecule `C=C[C@H]1[C@H](O[C@@H]2O[C@H](COC(C)=O)[C@@H](O)[C@H](OC(C)=O)[C@H]2OC(C)=O)OC=C2C(=O)OCC[C@H]21` has an IC50 of over 200 µM.
`C=C[C@H]1[C@H](O[C@@H]2O[C@H](CO)[C@@H](OC(=O)c3cccc(O)c3O[C@@H]3O[C@H](CO)[C@@H](O)[C@H](O)[C@H]3O)[C@H](O)[C@H]2O)OC=C2C(=O)OCC[C@H]21` was tested, and the IC50 was over 200 µM.
With `C=C[C@H]1[C@H](O[C@@H]2O[C@H](COC(C)=O)[C@@H](OC(C)=O)[C@H](O)[C@H]2OC(=O)c2cccc(O)c2O)OC=C2C(=O)OCC[C@H]21` the IC50 was 0.69 µM.
`C=C[C@H]1[C@H](O[C@@H]2O[C@H](COC(C)=O)[C@@H](OC(C)=O)[C@H](OC(C)=O)[C@H]2O)OC=C2C(=O)OCC[C@H]21` gave an IC50 of over 200 µM.
Work on `C=C[C@H]1[C@H](O[C@@H]2O[C@H](COC(=O)c3cccc(O)c3O[C@@H]3O[C@H](CO)[C@@H](O)[C@H](O)[C@H]3O)[C@@H](O)[C@H](O)[C@H]2OC(=O)c2cccc(O)c2O)OC=C2C(=O)OCC[C@H]21` yielded an IC50 of over 200 µM.
